# Measurements published in patent publication US11340216B2, “Methods and compositions for the positive selection of protein destabilizers” (Dana-Farber Cancer Institute, Inc., priority 2016, dated 2022).
# Tests used:
# [1] = tested on: DCK-IKZF1-IRES-GFP in 293T cells; assay: Up assay with limited drug library of approximately 700 compounds; assay type: cell-based; settings: ~700 compound library, BVdU on Day 2, read Day 5, FIG. 25
# Procedure: For the up assay experiment, 293T cells stably infected to produce DCK-IKZF1-IRES-GFP were seeded in three 384 well plates on Day 0. Each well on each plate received a library drug from a ˜700 compound drug library, and BVdU on Day 2.
# [2] = biological target: T1, IKZF1-Firefly luciferase protein in 293T cells (UniProt P08659+Q13422+Q96SW2); assay: Down assay, Firefly/Renilla luciferase ratio; assay type: cell-based; settings: read Day 5, FIG. 26
# T1 construct: expressed in transfected cells; host or cells: 293T, stably infected
# Procedure: A down assay experiment was conducted in parallel with the up assay experiment. For the down assay experiment, 293T cells stably infected to produce the IKZF1-Firefly luciferase protein as well as the Renilla luciferase protein from a single mRNA transcript were treated as described in the “Up” Assay. On Day 5, for each plate, Firefly and Renilla luciferase signals were quantified, and the Firefly/Renilla ratio calculated for each well and converted to a Z-statistic and plotted (FIG. 26). The hits noted in the “Up Assay” have been labeled in FIG. 25 and FIG. 26 to allow for comparison between the two assays.
# [3] = tested on: dCK-IKZF3 fusion protein; assay: BVdU sensitivity and pomalidomide rescue, cell count by Vi-Cell, cells expressing dCK-IKZF3 fusion; assay type: cell-based; settings: 2 μM pomalidomide, 100 μM BVdU, counted day 5, FIG. 7
# Procedure: (§1) To assess the validity of the proposed positive selection system, a set of experiments was devised according to the technique outlined in FIG. 6. On day −2, 1×10^6 cells were seeded into a 6 cm dish with 4 mL of DMEM culture media. On day −1, 30,000 cells were seeded per well of a 6 well plate in DMEM media, and on day 0, media were replaced with DMEM media supplemented with decreasing concentrations of BVdU, generated by serial dilution. From days 0-4, media were replaced daily, and on day 5, cells were counted by Vi-Cell. For pomalidomide rescue experiments, the cells were seeded as described above, but from day −2 onwards, were maintained in DMEM media supplemented with 2 μM pomalidomide (Selleck Chemicals).
# [4] = biological target: T2, deoxycytidine kinase (dCK) (Homo sapiens, UniProt P27707); assay: BVdU sensitivity and pomalidomide rescue, cell count by Vi-Cell, cells expressing unfused dCK; assay type: cell-based; settings: 2 μM pomalidomide, BVdU dose-response, FIG. 8
# T2 construct: V5 (only if expressed from the GFP vector); expressed in transfected cells
# Procedure: as §1
# [5] = tested on: DCK-IKZF1-IRES-GFP in 293T cells; assay: Pilot drug screen, up assay, 384 well, GFP fluorescence converted to Z-statistic; assay type: cell-based; settings: ~25 μM library drug, BVdU Day 1, read Day 5, FIG. 24
# Procedure: Columns 1, 23, and 24 of the plate shown in FIG. 23 (right) were treated with DMSO, Pomalidomide, and Dipyridamole, respectively, while each well in Columns 2-22 was treated with an individual drug (concentration=˜25 μM) from a library of approximately 550 bioactive chemicals. On Day 1, Column 1 was treated with DMSO, and Columns 2-24 were treated with BVdU. On Day 5, GFP fluorescence in each well was quantified using an Acumen Laser Cytometer.
# [6] = tested on: dCK-IKZF3 fusion protein; assay: Competition assay, dCK-IKZF3 GFP cells mixed with dCK tdTomato cells, flow cytometry; assay type: cell-based; settings: 2 μM pomalidomide plus 100 μM BVdU, 14 days, FIG. 22
# Excerpt: Next, a competition assay was devised using dCK and CK-IKZF constructs (FIG. 21). In these experiments, cells expressing dCK-IKZF fusion protein and GFP were mixed with cells expressing dCK and tdTomato. In the presence of BVdU, cells expressing either construct would be capable of generating the cytotoxic product. However, upon the addition of an IMiD (pomalidomide), dCK-IKZF fusion protein would be destabilized, allowing outgrowth of GFP+ cells. dCK-IKZF3 cells labeled with GFP were mixed with dCK cells labeled with tdTomato at a ratio of 1:99 and on day −2, were plated into 6 well plates at 100,000 cells/well in triplicate. On Day −1, the “Mock” and “BVdU” wells were treated with DMSO, and the “pomalidomide” well was treated with 2 μM pomalidomide. On day 0, the “Mock” well was treated with DMSO, while the “BVdU” well was treated with 100 μM BVdU, and the “pomalidomide” well received 2 μM pomalidomide and 100 μM BvDU. Cells were split, re-seeded to maintain cell density, treated with the appropriate drugs and analyzed by flow cytometry every 3 days.
# [7] = tested on: DCK-IKZF1-IRES-GFP; assay: Same-well assay, 1:1 mixture of DCK-IRES-Tomato and DCK-IKZF1-IRES-GFP 293T stables, GFP/Tomato ratio; assay type: cell-based; settings: BVdU exposure, FIG. 28
# Procedure: However, exposure of the cells to Pomalidomide and subsequent BVdU exposure specifically rescues the DCK-IKZF1-IRES-GFP population and increases the GFP/Tomato ratio.
# This assay was deployed in a proof of concept experiment with a small library of ˜88 engineered IMiD derivatives and plated at 10 serial dilutions ranging from 10 μM to 300 pM.
# [8] = tested on: IKZF3 and IKZF3 fusion proteins; settings: 2 μM or 20 μM Pomalidomide, FIG. 5
# Procedure: HEK-293FT (Invitrogen) cells were maintained in DMEM medium supplemented with 10% FBS, 100 U/mL Penicillin and 100 μg/mL streptomycin. Stable cell lines were established by lentiviral infection followed by growth in media containing 10 μg/mL blasticidin, followed by fluorescence activated cell sorting to collect GFP-expressing cells.
# On day 0, 250,000 cells were seeded into each of three wells of a 6-well plate. […] Cells were washed twice with ice-cold PBS and harvested in EBC Lysis Buffer supplemented with 1× protease inhibitor (Roche). Whole cell extracts were resolved by SDS-PAGE, transferred onto a nitrocellulose membrane, and probed with indicated primary antibodies.
# [9] = tested on: EV-GFP / dCK-Tomato cell mixture; assay: Cell mixing (bystander effect) assay, EV-GFP cells with dCK-Tomato cells, flow cytometry; assay type: cell-based; settings: 100 μM BVdU, 100,000 cells/well, start 8% EV-GFP
# Excerpt: The scheme depicted in FIG. 14 generally describes the bystander effect assay in the context of dCK positive selection systems. Cells expressing dCK and tomato fluorescent protein (Td) are mixed with cells having empty vector (EV) and green fluorescent protein (GFP). When cultured with BVdU, cells expressing dCK are expected to convert the nucleotide analog into a product that elicits cytotoxicity, resulting in outgrowth of resistant cells (EV-GFP) as measured by relative GFP/Td fluorescence in the absence of significant bystander killing.
# The effects of cell density in cell mixture experiments were examined. EV-GFP cells were mixed together with dCK-Tomato cells in a ratio of 1:9, and the resulting mixture of cells was plated in 6 well plates at 500,000 cells/well, 250,000 cells/well, and 100,000 cells/well, with two wells plated per cell density (FIG. 15). For each cell density, one well received 100 μM BVdU, and the other an equivalent amount of DMSO. Cells were split and re-seeded every 72 hours, to preserve cell density, and analyzed by flow cytometry to quantify the fraction of GFP and Tomato-labeled cells.
# T2 sequence (P27707 whole entry, species assumed, the tested form may be a part): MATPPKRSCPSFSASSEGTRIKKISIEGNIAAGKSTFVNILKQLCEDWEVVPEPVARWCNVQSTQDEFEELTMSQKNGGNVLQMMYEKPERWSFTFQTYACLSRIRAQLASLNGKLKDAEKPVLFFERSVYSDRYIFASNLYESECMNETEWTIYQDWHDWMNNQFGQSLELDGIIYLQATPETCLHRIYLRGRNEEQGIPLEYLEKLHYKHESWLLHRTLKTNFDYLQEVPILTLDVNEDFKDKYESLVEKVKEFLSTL
# T1 sequence (Q13422+P08659 fused): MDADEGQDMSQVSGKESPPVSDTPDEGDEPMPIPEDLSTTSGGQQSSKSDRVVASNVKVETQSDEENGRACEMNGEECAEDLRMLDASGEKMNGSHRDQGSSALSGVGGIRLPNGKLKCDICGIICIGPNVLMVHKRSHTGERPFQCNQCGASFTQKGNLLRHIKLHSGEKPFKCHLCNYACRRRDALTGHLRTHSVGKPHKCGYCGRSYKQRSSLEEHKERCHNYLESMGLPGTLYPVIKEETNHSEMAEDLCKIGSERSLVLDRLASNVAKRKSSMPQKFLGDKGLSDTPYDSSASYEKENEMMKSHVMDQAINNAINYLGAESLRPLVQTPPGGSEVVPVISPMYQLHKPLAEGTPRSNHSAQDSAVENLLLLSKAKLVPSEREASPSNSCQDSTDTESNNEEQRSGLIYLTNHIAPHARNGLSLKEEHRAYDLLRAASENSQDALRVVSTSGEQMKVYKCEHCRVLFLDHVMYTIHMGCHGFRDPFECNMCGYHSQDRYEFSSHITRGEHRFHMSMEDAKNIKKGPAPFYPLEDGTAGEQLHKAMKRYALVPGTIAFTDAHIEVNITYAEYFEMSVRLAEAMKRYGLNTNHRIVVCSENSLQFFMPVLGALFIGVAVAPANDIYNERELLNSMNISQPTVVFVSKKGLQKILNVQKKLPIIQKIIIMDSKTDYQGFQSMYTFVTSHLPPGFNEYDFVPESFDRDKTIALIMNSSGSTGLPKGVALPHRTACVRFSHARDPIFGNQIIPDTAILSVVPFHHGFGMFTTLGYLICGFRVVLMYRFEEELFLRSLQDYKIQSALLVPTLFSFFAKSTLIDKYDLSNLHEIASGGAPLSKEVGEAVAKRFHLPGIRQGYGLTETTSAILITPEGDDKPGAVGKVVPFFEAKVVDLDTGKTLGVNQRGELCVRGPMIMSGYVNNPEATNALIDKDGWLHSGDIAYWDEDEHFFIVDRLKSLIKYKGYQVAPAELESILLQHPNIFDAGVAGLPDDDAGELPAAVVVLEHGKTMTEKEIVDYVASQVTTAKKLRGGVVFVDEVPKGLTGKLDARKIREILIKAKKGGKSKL
# T1 sequence (Q96SW2 whole entry): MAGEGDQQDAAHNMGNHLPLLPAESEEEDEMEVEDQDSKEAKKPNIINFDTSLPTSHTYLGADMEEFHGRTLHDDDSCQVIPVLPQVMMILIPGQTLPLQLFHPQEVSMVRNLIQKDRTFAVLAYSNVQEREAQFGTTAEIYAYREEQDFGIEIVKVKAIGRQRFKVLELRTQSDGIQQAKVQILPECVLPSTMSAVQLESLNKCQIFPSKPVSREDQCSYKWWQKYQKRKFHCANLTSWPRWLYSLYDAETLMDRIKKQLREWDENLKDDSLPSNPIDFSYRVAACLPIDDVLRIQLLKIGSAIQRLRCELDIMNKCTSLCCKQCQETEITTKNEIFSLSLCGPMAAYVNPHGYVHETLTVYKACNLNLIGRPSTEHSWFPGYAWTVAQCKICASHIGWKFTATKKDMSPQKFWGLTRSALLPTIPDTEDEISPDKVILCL
# T1 sequence (Q16531 whole entry partner): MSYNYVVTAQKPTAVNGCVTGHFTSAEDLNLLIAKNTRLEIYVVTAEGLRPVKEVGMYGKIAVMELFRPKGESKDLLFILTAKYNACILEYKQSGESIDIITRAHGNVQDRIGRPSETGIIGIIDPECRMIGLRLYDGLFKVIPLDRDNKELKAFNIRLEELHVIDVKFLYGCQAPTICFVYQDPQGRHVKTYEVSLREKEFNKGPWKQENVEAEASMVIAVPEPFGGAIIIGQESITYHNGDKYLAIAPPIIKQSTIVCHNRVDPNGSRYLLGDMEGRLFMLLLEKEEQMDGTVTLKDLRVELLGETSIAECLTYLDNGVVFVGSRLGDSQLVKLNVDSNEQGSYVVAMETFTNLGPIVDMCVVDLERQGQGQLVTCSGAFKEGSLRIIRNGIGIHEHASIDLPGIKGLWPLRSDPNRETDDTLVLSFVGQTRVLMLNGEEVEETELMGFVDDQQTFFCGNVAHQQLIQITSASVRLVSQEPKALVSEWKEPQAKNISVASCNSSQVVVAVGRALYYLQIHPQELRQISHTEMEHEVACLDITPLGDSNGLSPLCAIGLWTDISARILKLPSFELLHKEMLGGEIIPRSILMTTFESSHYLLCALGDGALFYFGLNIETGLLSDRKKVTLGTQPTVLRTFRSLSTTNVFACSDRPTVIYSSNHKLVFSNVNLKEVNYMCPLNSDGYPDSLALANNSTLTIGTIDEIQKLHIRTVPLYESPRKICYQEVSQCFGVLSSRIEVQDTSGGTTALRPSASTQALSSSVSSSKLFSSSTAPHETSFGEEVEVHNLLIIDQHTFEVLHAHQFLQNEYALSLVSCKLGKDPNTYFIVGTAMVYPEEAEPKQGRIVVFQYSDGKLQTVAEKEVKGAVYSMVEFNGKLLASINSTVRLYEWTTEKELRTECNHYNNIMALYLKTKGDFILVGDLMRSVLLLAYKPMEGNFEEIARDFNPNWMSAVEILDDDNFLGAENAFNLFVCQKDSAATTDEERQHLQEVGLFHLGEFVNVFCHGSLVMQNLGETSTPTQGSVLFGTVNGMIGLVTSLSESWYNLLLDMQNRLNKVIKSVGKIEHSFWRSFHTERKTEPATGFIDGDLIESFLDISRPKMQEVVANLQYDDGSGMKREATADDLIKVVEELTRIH
smiles,measurement,setting,value
Cc1cn([C@H]2C[C@H](O)[C@@H](CO)O2)c(=O)[nH]c1=O [Thymidine],Hit classification in up assay (GFP Z-statistic),[1],assay positive
same,Hit classification in down assay (Firefly/Renilla ratio Z-statistic),[2],does not score
"Nc1cccc2c1C(=O)N(C1CCC(=O)NC1=O)C2=O (stereo not shown) [Pomalidomide, pomalidomide]",Rescue of cell viability from BVdU in cells expressing the fusion construct (CK-IKZF+Pom),[3],partial rescue and cell growth
same,Rescue from BVdU in cells expressing enzyme only (DCK+Pom),[4],rescue did not occur
same,Hit classification in pilot up-assay screen (GFP Z-statistic),[5],true-positive hits
same,Outgrowth of GFP+ (dCK-IKZF3) cells from 1% initial population,[6],allowed for outgrowth of GFP+cells
same,Classification by GFP and GFP/Tomato ratio in the same well,[7],true positive
same,Cellular levels of IKZF3 and IKZF3 fusion proteins,[8],highly sensitive
same,Hit classification in up assay (GFP Z-statistic),[1],true-positive hits
"OCCN(CCO)c1nc(N2CCCCC2)c2nc(N(CCO)CCO)nc(N3CCCCC3)c2n1 [Dipyridamole, dipyridamole]",Hit classification in pilot up-assay screen (GFP Z-statistic),[5],non-specific hits
same,Classification by GFP and GFP/Tomato ratio in the same well,[7],assay positive
"O=c1[nH]c(=O)n([C@H]2C[C@H](O)[C@@H](CO)O2)cc1/C=C/Br [BVdU, bromovinyl-deoxyuridine]",EV-GFP cells as fraction of the cell mixture,[9]; day 3,29%
same,EV-GFP cells as fraction of the cell mixture,[9]; day 7,88%
